Measured values as given in patent publication US20260327239A1, “COMPOUNDS FOR COVALENT INHIBITION OF SHP2” (Purdue Research Foundation, priority 2023, published 2026).
“Also recorded” adds a separate entry of the source.

Experiments:
SHP2 [1] = biological target: T1, SHP2 (Homo sapiens, UniProt Q06124); assay: Active site protection by vanadate (jump-dilution assay); type: biochemical; conditions: role: inhibitor, 10 min, diluted 100-fold into 10 mM pNPP
T1 construct: 4× solution of SHP2 (residues 224-528)
T1 sequence (Q06124 224-528): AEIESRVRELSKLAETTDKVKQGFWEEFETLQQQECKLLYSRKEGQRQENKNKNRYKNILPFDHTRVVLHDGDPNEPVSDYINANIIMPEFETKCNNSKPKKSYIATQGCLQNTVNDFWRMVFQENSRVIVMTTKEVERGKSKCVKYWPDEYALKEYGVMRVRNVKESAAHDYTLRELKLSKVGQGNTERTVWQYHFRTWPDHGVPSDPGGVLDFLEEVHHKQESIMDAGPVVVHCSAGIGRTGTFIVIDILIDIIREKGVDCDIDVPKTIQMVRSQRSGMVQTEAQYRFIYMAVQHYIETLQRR
Procedure: To further support a covalent mechanism of action and engagement of the SHP2 active site, a jump-dilution assay was employed both in the presence and absence of the known reversible PTP active site competitive inhibitor vanadate (VO4) (Seiner, D. R. et al., Chem. Res. Toxicol. 2007, 20, 1315-1320) In this experiment, SHP2 was co-incubated with 100 μM compound (10) and 500 μM vanadate or DMSO for 10 minutes. The enzyme-inhibitor complex was then rapidly diluted 100-fold into a buffered solution containing 10 mM pNPP, and the absorbance at 405 nm was immediately monitored over time to determine the remaining enzymatic activity.
A solution containing 500 μM Vanadate or DMSO, 4 μM SHP2, and 100 μM (10) or DMSO in DMG buffer (with no EDTA) was added to a clear flat-bottom 96-well plate (Corning Costar Assay Plate #9017). This was allowed to incubate for 10 minutes at 25° C. before transferring 3 μL to a new clear flat-bottom 96-well plate (Corning Costar Assay Plate #9017). To each well was added 297 μL of 10.1 mM pNPP in DMG buffer (with EDTA) and the plate Plates were then read for absorbance at 405 nm using a CLARIOstar^Plus plate reader (BMG Labetch). Data was imported into Graphpad Prism 9 (GraphPad Software, San Diego, CA (US)), and a baseline correction analysis was completed for fitting purposes.

SHP2 (residues 224-528) = biological target: T2, SHP2 (residues 224-528) (Homo sapiens, UniProt Q06124); assay: Kinetic characterization of SHP2 inactivation (pNPP cleavage progress curves, kobs, kinact/KI); type: biochemical
T2 construct: 4× solution of SHP2 (residues 224-528)
T2 sequence (Q06124 224-528): T1 sequence (Q06124 224-528)
Description: Covalent inhibitors work by forming a covalent bond with a reactive functional group in the target enzyme. Consequently, the kinetics for enzyme inactivation by a covalent inhibitor is not an equilibrium process as with reversible inhibition. The potency of a reversible inhibitor can be measured by its IC50 value. Unlike reversible inhibitors, where inhibition is only concentration-dependent, covalent inhibitors show both time- and concentration-dependent target inhibition (a covalent bond formation is a time-dependent event). If sufficient time is available, covalent inhibitors can completely neutralize the target, rather than go to equilibrium. As a result, the potency and selectivity of a covalent inhibitor cannot be determined by IC50 values; instead, the rate of inactivation of the target (kinact) and the inhibition constant (KI) were determined. The bimolecular rate constant (kinact/KI), was chosen to rank the potency of covalent inhibitors (Ruddraraju et al., 2017, Molecular Biosystems 13(7), 1257-1279).
PTPs catalyze the dephosphorylation of tyrosine-phosphorylated protein substrates through a conserved mechanism that relies on a catalytic cysteine residue (Zhang, Z.-Y et al., 2003, Prog. Nucleic Acid Research Molecular Biology, 73, 171-220). This provides a mechanistic rationale for the assessment of electrophilic Michael acceptors, such as those synthesized in the present disclosure as potential covalent inhibitors of the SHP2. The enzymatic cleavage of para-nitrophenyl phosphate by SHP2 was measured over time in the presence of 100 μM inhibitor or DMSO, to determine the observed first-order rate constant (kobs). Based on kobs values, compounds were further evaluated in a dose-dependent manner to determine the second-order rate constant (kinact/KI) indicating the overall efficacy of the compounds, which was used to assess the structure-activity relationship (SAR) for the analogs of interest and design additional analogs (see Table 1). […] It has been known that modifications to the electronegativity of substituents proximal to electrophilic centers alter the reactivity of the electrophile.
The efficacy of covalent inhibitors can be broken down into the initial reversible binding of the compounds (KI), and the rate of covalent bond formation and enzyme inactivation (kinact). These two constants can be used individually, or as a ratio to determine the overall efficacy of the inhibitor's efficacy. To investigate the contribution to reversible binding compound (34) was evaluated, which lacks the carbonyl of the Michael acceptor to prevent the formation of a covalent adduct.
Inhibitors were evaluated for their ability to inhibit the reaction catalyzed by SHP2 using para-nitrophenyl phosphate (pNPP) as a substrate at pH 7 and 25° C. A 2× solution of inhibitor was diluted into DMG buffer (50 mM 3,3-dimethylglutarate pH 7.0, 1 mM EDTA, ionic strength adjusted to 150 mM using NaCl) was added to a clear flat-bottom 96-well plate (Corning Costar Assay Plate #9017), and serially diluted 1.5-fold, resulting in 100 μL volumes of varying inhibitor concentrations. To this was added a 4× solution of pNPP (12 mM) in DMG buffer. The reaction was initialized by the addition of a 4× solution of SHP2 (residues 224-528), resulting in a final solution of: inhibitor (100-0 μM), pNPP (3 mM), and SHP2 (100 nM). The plate was then monitored for a change in absorbance ab […] using a CLARIOstar^Plus plate reader (BMG Labetch) over the course of an hour. The resulting progress curves for each inhibitor were imported into Graphpad Prism 9 (GraphPad Software, San Diego, CA (USA)), and a baseline correction analysis was completed for fitting purposes. Each curve was fit to the equation Y=V0×(1−e^−kobs*t)/kobs.^[17.22] The kobs values were then plotted against inhibitor concentrations. If the resulting graph was linear, the kinact/KI value was determined by the slope of that line and the 95% confidence interval (95% CI). […]

SHP2 [2] = biological target: T1, SHP2; assay: Covalent adduct formation on SHP2 by intact protein LC-MS; type: binding; conditions: 10 μM SHP2, 60 minutes
Procedure: To validate covalent modification of SHP2 by the active compounds, adduct formation on SHP2 was measured by intact protein liquid chromatography-mass spectrometry (LC-MS). With intact protein LC-MS, multiply charged states of the protein species can be deconvoluted to achieve the total mass(es). Compounds were incubated with 10 μM SHP2 for 60 minutes before being quenched with acetonitrile for LC-MS analysis by electrospray ionization (ESI) in positive mode. […] (33), and (42) (FIGS. 3A and 3B).
To unfold protein and quench protein-ligand reactivity, 10 μL of treated or untreated 10 μM SHP2 was diluted in 40 μL of 80% (v/v) formic acid initially, followed by 150 μL of LC-MS buffer (50/50 water/acetonitrile with 0.1% formic acid). 20-25 pmol per sample was analyzed by LC/MS (Agilent 1260 Infinity II with a ZORBAX Rapid Resolution High Definition 300 Å Stable Bond C3, 2.1×100 mm, 1.8 μm column) attached to an Agilent 6129 quadrupole mass spectrometer in positive ion mode. The column was held at 45° C. Mobile solution A was 0.1% formic acid in water, and mobile phase B was 0.1% formic acid in acetonitrile. The gradient used was hold at 10% B for 5 min, increase linearly to 80% B for 15 min, and then hold at 80% B for 5 min. The mass data were collected at a range of 600-1500 m/z. Raw data were processed using MestReNova. For all samples, the deconvoluted mass was calculated by taking the m/z range of 730-1100 Da, and deconvoluted mass range from 36500-37200 Da. An abundance threshold of 10% and tolerance of 30 ppm was set for deconvolution. Unreacted SHP2's total deconvoluted mass was 36602±10 Da; for each deconvolution, the highest deconvoluted mass intensity was utilized as the mass pivot point to determine and identify reacted SHP2 adducts. To calculate the percent SHP2 reacted, the relative abundance intensity of reacted SHP2 was divided by the total relative abundance intensities of unreacted and reacted SHP2.

Row | kinact/KI (SHP2 (residues 224-528); pH 7, role: inhibitor, substrate pNPP 3 mM, 100 nM SHP2, pH 7.0, 25° C, read-out: kinact/KI (converted)) [M⁻¹ s⁻¹] | fold increase in efficacy compared to PVSN (SHP2 (residues 224-528); role: inhibitor, kinact/KI relative to PVSN) | Found Ligand Adduct (mass shift) (SHP2 [2]; intact protein LC-MS) [Da] | % SHP2 Reacted (overall adduct formation) (SHP2 [2]; PVSN at 20 μM, compound 37 at 10 μM) [%] | Compound | SHP2 activity recovery after jump-dilution, vanadate alone (SHP2 [1]; 500 μM vanadate, compared to DMSO control) | residual SHP2 activity after jump-dilution (SHP2 [1]; 100 μM compound (10) alone) | residual SHP2 activity after jump-dilution with vanadate (SHP2 [1]; 100 μM compound (10) with 500 μM vanadate (competitive inhibitor))
1 | – | – | – | – | [O]=[V]([O-])([O-])[O-] [vanadate, reference compound] | fully recovered activity | – | –
2 | 20.5 | approximately 6 fold | 206 | 34 | C=C1C(=O)[C@@]2(C(=O)OC)CC(=O)C[C@@H]1C2 [Compound 10] | – | negligible residual enzymatic activity; also recorded: Little residual activity was detected | substantial residual activity; also recorded: protected from inactivation
